Reference: patent publication US5789403A, “Substituted thiazolo [3,2-a]azepine derivatives” (Eisai Co., Ltd., priority 1994, dated 1998)

Assays:
[1] = molecular target: T1, NEP (neutral endpeptidase) (Rattus norvegicus, UniProt P07861); experiment: NEP inhibiting activity with rat kidney cortex membrane fraction; type: biochemical; settings: substrate Benzoyl-Gly-Arg-Arg-2-naphthylamide, 540 nm
T1 construct: membrane fraction prepared from the kidney cortex of rat; from tissue; host or cells: rat kidney cortex membrane fraction
T1 sequence (P07861 1-750): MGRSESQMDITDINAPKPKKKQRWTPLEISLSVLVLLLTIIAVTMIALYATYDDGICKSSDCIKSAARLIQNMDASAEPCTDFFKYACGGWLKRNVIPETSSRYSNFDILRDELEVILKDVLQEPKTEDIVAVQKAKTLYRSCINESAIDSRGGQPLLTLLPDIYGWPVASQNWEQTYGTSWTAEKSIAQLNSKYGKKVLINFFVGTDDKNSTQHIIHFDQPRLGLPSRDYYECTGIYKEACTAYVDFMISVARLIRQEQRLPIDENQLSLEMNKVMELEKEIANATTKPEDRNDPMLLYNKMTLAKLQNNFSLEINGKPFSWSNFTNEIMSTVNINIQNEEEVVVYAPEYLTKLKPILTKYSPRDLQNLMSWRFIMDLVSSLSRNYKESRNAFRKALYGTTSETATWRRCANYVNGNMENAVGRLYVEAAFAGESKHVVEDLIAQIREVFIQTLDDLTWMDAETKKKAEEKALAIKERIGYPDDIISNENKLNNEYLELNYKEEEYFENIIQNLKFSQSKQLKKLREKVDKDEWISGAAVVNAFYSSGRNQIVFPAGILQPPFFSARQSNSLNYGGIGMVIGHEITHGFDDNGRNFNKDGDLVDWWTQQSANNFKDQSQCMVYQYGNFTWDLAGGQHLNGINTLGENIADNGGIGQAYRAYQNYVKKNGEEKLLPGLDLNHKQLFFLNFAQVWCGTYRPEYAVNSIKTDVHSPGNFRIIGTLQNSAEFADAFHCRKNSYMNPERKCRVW
Description: Determination of NEP inhibiting activities of medicaments with rat kidney cortex
NEP activity was determined with the membrane fraction prepared from the kidney cortex of rat according to the process of Booth and Kenny (A Rapid Method for the Purification of Microvilli from Rabbit Kidney., Andrew G. Booth and A. John Kenny, Biochem J., 1974, 142, 575-581).
The NEP activity was determined according to the process of Orlowsky and Wilk (Purification and Specificity of a Membrane-Bound Metalloendpeptidase from Bovine Pituitaries., Marian Orlowsky and Shrwin Wilk, Biochemistry, 1981, 20, 4942-4950.) by the following method.
Benzoyl-glycyl-arginyl-arginyl-2-naphthylamide (Benzoyl-Gly-Arg-Arg-2-napththylamide (Nova Biochem, Switzerland)) was used as substrate. The naphthylamine liberated in the presence of the NEP enzyme sample and excess of leucine aminopeptidase (Sigma Chemical Co., U.S.A.) was color-developed with […] (Sigma Chemical Co., U.S.A.) and the absorbance at a wavelength of 540 nm was determined.
The NEP inhibiting activity was determined by adding the test compound to the above experiment system in final concentrations of 1, 3, 10, 30, 100, 300 and 1000 nM to form an inhibition curve and determining the concentration at which 50% of the activity was inhibited as IC50. [4S-(4α,7α(R*), 12bβ]]-7-[(1-oxo-2(S)-thio-3-phenylpropyl)amino]-1,2,3,4,6,7,8,12b-octahydro-6-oxopyrido[2,1-a] [2] benzazepine-4-carboxylic acid (which is a compound disclosed in Japanese Patent Publication-A No. 4-282382) was used as the control compound.

[2] = molecular target: T2, ACE (angiotensin I converting enzyme) (Rattus norvegicus, UniProt P47820); experiment: ACE inhibiting activity with rat lung membrane fraction; type: biochemical; settings: substrate Hippuryl-His-Leu, borate buffer pH 8.3, 228 nm
T2 construct: membrane fraction prepared from the lung of rat; from tissue; host or cells: rat lung membrane fraction
T2 sequence (P47820 36-1313): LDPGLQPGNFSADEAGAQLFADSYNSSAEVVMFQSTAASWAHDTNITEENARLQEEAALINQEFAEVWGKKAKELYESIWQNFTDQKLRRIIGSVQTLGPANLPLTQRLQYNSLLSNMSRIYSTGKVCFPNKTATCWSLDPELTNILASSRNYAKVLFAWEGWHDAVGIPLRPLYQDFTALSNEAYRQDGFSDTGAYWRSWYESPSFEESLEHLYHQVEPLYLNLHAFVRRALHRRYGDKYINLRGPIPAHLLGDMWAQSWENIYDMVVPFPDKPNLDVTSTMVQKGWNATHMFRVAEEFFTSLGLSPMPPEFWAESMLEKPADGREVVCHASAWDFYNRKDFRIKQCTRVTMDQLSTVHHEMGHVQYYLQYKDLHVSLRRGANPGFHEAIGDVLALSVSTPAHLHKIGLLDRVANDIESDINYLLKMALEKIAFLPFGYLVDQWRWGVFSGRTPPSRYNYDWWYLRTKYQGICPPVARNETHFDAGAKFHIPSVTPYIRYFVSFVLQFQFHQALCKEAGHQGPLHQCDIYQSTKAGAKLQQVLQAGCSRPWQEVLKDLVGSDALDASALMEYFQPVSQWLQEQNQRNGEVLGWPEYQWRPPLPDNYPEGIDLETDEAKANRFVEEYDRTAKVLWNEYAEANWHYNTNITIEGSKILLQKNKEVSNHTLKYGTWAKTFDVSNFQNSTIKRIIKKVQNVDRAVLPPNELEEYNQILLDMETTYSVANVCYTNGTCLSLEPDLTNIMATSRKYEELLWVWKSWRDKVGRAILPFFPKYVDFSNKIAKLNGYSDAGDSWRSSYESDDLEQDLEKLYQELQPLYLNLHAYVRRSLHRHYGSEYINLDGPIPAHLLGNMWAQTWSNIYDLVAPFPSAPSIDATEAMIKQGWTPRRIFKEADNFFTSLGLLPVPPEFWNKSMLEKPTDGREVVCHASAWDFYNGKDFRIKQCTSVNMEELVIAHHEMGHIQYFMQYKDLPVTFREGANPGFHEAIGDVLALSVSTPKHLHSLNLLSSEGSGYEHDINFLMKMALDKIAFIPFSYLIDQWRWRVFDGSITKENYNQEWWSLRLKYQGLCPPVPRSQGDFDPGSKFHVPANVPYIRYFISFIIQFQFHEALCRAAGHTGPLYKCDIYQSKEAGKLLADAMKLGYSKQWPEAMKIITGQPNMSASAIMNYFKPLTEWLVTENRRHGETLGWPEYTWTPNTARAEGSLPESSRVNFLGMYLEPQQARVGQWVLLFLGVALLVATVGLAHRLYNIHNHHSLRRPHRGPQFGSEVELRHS
Description: Determination of ACE inhibiting activities of medicaments with rat lung
ACE inhibiting activity was examined with the membrane fraction prepared from the lung of rat according to the method of Wu-Wong et al. (Characterization of Endthelin Converting Enzyme in Rat Lung, Junshyum R. Wu-Wong, Gerald P. Budzik, Edward M. Devine and Terry J. Opgenorth, Biochem. Biophys. Res. Commun., 1990, 171, 1291-1296.).
The ACE activity was determined by a modification (wherein the pH of the borate buffer was changed to 8.3) of the Cushman-Cheung method (Spectrophotometric Assay and Properties of the Angiotensin-Converting Enzyme of Rabbit Lung., Cushman D. W. and Cheung H. S., 1971, 20, 1637-1648).
The hippurate liberated from Hippuryl-histidylleucine (Hippuryl-His-Leu (Peptidelnstitute lnc., Japan)) in the presence of ACE was extracted with ethyl acetate and the absorbance at a wavelength of 228 nm was determined.
The ACE inhibiting activity was determined by adding the test compound to the above experiment system in final concentrations of 1, 3, 10, 30, 100, 300 and 1000 nM to form an inhibition curve and determining the concentration at which 50% of the activity was inhibited as IC50. [4S-[4α,7α(R*),12bβ]]-7-[(1-oxo-2(S)-thio-3-phenylpropyl)amino]-1,2,3,4,6,7,8,12b-octahydro-6-oxopyrido[2,1-a] [2]benzazepine-4-carboxylic acid (which is a compound disclosed in Japanese Patent Publication-A No. 4-282382) was used as the control compound.

Compound | IC50 [1] | IC50 [2]
CC[C@H](C)[C@H](S)C(=O)N[C@H]1CC[C@@H](C)[C@H]2SC[C@@H](C(=O)O)N2C1=O [Example 11, [3R-(3α,6α,9α,9aβ)]-6-[[(2S,3S)-1-Oxo-2-thio-3-methylpentyl]amino]-9-methyl-5-oxo-octahydrothiazolo[3,2-a]azepine-3-carboxylic acid] | 6.7 nM | 2.2 nM
CC[C@H](C)[C@H](S)C(=O)N[C@H]1C[C@@H](C)C[C@H]2SC[C@@H](C(=O)O)N2C1=O [Example 9, [3R-(3α,6α,8α,9aβ)]-6-[[(2S,3S)-1-Oxo-2-thio-3-methylpentyl]amino]-8-methyl-octahydro-5-oxothiazolo[3,2-a]azepine-3-carboxylic acid] | 13 nM | 5.1 nM
CC[C@H](C)[C@H](S)C(=O)N[C@H]1C[C@H](C)C[C@H]2SC[C@@H](C(=O)O)N2C1=O [Example 10, [3R-(3α,6α,8β,9aβ)]-6-[[(2S,3S)-1-Oxo-2-thio-3-methylpentyl]amino]-8-methyl-octahydro-5-oxothiazolo[3,2-a]azepine-3-carboxylic acid] | 12 nM | 4.3 nM
CC[C@H](C)[C@H](S)C(=O)N[C@H]1CC[C@H](C)[C@H]2SC[C@@H](C(=O)O)N2C1=O [Example 3, [3R-(3α,6α,9β,9aβ)]-6-[[(2S,3S)-1-Oxo-2-thio-3-methylpentyl]amino]-9-methyl-5-oxo-octahydrothiazolo[3,2-a]azepine-3-carboxylic acid] | 4.3 nM | 2.5 nM
CC[C@H]1CC[C@H](NC(=O)[C@@H](S)[C@@H](C)CC)C(=O)N2[C@@H]1SC[C@H]2C(=O)O [Example 24, [3R-(3α,6α,9β,9aβ)]-6-[[(2S,3S)-1-Oxo-2-thio-3-methylpentyl]amino]-9-ethyl-5-oxo-octahydrothiazolo[3,2-a]azepine-3-carboxylic acid] | 1.5 nM | 2.5 nM
